This is an account of results in ChEMBL document CHEMBL1150179, “The cytotoxic principles of Solanum incanum” (1990).

Structures are written as SMILES. Converted amounts (≈) assume the structure as drawn.

The nature of test [1]: Cytotoxicity against human PLC/PRF/5 cells by microassay. The settings on record: read-out: ED50 (the source's name). Format: functional.
Another test concerns KB. Kind of test: Cytotoxicity against human KB cells by microassay. The settings on record: read-out: ED50 (the source's name). In kind it is functional.

For `C/C=C/C(=O)O[C@H]1CC[C@]2(C)[C@H]3CC=C4[C@@H]5[C@@H](C)[C@H](C)CC[C@]5(C(=O)O)CC[C@@]4(C)[C@]3(C)CC[C@H]2C1(C)C`, the EC50 in test [1] is 2.59 µg/mL (≈ 4.94 µM).

`CCCCCCCCCCCCCCCC(=O)O[C@H]1CC[C@]2(C)[C@H]3CC=C4[C@@H]5[C@@H](C)[C@H](C)CC[C@]5(C(=O)O)CC[C@@]4(C)[C@]3(C)CC[C@H]2C1(C)C`: the EC50 in test [1] was 3.54 µg/mL (≈ 5.09 µM).

In the case of `CCC(=O)O[C@H]1CC[C@]2(C)[C@H]3CC=C4[C@@H]5[C@@H](C)[C@H](C)CC[C@]5(C(=O)O)CC[C@@]4(C)[C@]3(C)CC[C@H]2C1(C)C`, the EC50 in test [1] came out at 2.54 µg/mL (≈ 4.95 µM).

Turning to `CC[C@H](C[C@@H](O)[C@@H](C)[C@H]1CC[C@H]2C3=CC(=O)[C@H]4[C@H](C)[C@@H](OC(=O)c5ccccc5)CC[C@]4(C)[C@H]3CC[C@]12C)C(C)C` [CARPESTEROL], in test [1], the EC50 came to 8.47 µg/mL (≈ 15 µM).

For the compound `C[C@H]1[C@H](C)CC[C@]2(C(=O)O)CC[C@]3(C)C(=CC[C@@H]4[C@@]5(C)CC[C@H](O)C(C)(C)[C@@H]5CC[C@]43C)[C@H]12` [URSOLIC ACID], the EC50 in test [1] was determined as 3.89 µg/mL (≈ 8.52 µM); in the test on KB, 3.76 µg/mL (≈ 8.23 µM).

Take `C[C@@H]1CC[C@]2(NC1)O[C@H]1C[C@H]3[C@@H]4CC=C5C[C@@H](O)CC[C@]5(C)[C@H]4CC[C@]3(C)[C@H]1[C@@H]2C` [SOLASODINE]: the EC50 in test [1] amounted to 3.75 µg/mL (≈ 9.07 µM); in the test with KB it was 3.74 µg/mL (≈ 9.04 µM).

As to `C[C@H]1[C@H](C)CC[C@]2(C(=O)O)CC[C@]3(C)C(=CC[C@@H]4[C@@]5(C)CC[C@H](OC(=O)c6ccccc6)C(C)(C)[C@@H]5CC[C@]43C)[C@H]12`, the EC50 in test [1] turned out to be 6.89 µg/mL (≈ 12.3 µM).

On to `C[C@@H]1CC[C@@]2(NC1)O[C@H]1C[C@H]3[C@@H]4CC=C5C[C@@H](O[C@@H]6O[C@H](CO)[C@@H](O[C@@H]7O[C@@H](C)[C@H](O)[C@@H](O)[C@H]7O)[C@H](O)[C@H]6O[C@@H]6O[C@@H](C)[C@H](O)[C@@H](O)[C@H]6O)CC[C@]5(C)[C@H]4CC[C@]3(C)[C@H]1[C@@H]2C` [SOLAMARGINE], for which, in test [1], the EC50 is 1.53 µg/mL (≈ 1.76 µM).

As to `C[C@@H]1CC[C@@]2(NC1)O[C@H]1C[C@H]3[C@@H]4CC=C5C[C@@H](O[C@@H]6O[C@H](CO)[C@@H](O[C@@H]7O[C@@H](C)[C@H](O)[C@@H](O)[C@H]7O)[C@H](O)[C@H]6O)CC[C@]5(C)[C@H]4CC[C@]3(C)[C@H]1[C@@H]2C` [KHASIANINE], the EC50 in test [1] was found to be 8.6 µg/mL (≈ 11.9 µM).

Turning to `C[C@H]1[C@H](C)CC[C@]2(C(=O)O)CC[C@]3(C)C(=CC[C@@H]4[C@@]5(C)CC[C@H](OC(=O)/C=C/c6ccccc6)C(C)(C)[C@@H]5CC[C@]43C)[C@H]12`, in test [1], the EC50 was 7.24 µg/mL (≈ 12.3 µM).
